Measurements published in patent US9090583B2, “Benzopyrone estrogen receptor regulator” (BEIJING SHENOGEN PHARMA GROUP LTD., priority 2010, dated 2015).
Converted amounts (≈) assume the structure as drawn. Where two headings read alike, the source gives them in different places.

Legend:
SK-OV3 cells = assay: CellTiter-Glo Luminescent Cell Viability Assay on ovary cancer SK-OV3 cells; assay type: cell-based; details: read-out: Inhibition of the viability of ovary cancer cells, IC50
Method: C: In Vitro CellTiter-Glo® Luminescent Cell Viability Assay on Ovary Cancer SK-OV3 Cells
(§1) The ovary cancer SK-OV3 cells were obtained from Cancer hospital, Chinese Academy of Medical Sciences and maintained in RPMI-1640 and 10% fetal calf serum at 37° C., under 5% CO2 atmosphere. The cells were seeded on 96-well plate at a density of 6×10^3 cells per well. SK-OV3 cells were treated with a test compound dissolved in DMSO at the concentrations of zero, 0.3 μM, 0.5 μM, 1 μM, 2 μM, 3 μM, 5 μM, 10 μM, 20 μM, 30 μM, 50 μM and 100 μM for 72 hours. Treated cells were examined by CellTiter-Glo® Luminescent Cell Viability Assay Kit (Promega), and luminescence values were recorded with Envision.

HO8910 cells = assay: CellTiter-Glo Luminescent Cell Viability Assay on ovary cancer HO8910 cells; assay type: cell-based; details: HO-8910 cells; 72 hours; read-out: Inhibition of the viability of ovary cancer cells, IC50
Method: A: In Vitro CellTiter-Glo® Luminescent Cell Viability Assay on Ovary Cancer HO8910 Cells
as §1, with “Ovary” for “The ovary”, “HO8910” for “SK-OV3”, “Type Culture Collection of the” for “Cancer hospital,”, “Sciences, Shanghai,” for “Medical Sciences”

CoC1 cells = assay: CellTiter-Glo Luminescent Cell Viability Assay on ovary cancer CoC1 cells; assay type: cell-based; details: 72 hours, read-out: Inhibition of the viability of ovary cancer cells, IC50
Method: B: In Vitro CellTiter-Glo® Luminescent Cell Viability Assay on Ovary Cancer CoC1 Cells
as §1, with “CoC1” for “SK-OV3”, “10” for “10 μM, 20”

MCF7 cells = assay: CellTiter-Glo Luminescent Cell Viability Assay on ER-positive breast cancer MCF-7 cells; assay type: cell-based, human; details: average ± standard deviation when tested more than 3 times, read-out: Inhibition of the viability of breast cancer cells, IC50
Method in brief: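 MCF7 cells (DMEM, 10% FCS, 37 °C) treated 72 h with compound at 0–100 μM (0.3, 0.5, 1, 2, 3, 5, 10, 20, 30, 50, 100 μM). Viability measured by CellTiter-Glo luminescence.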

MDA-MB-231 cells = assay: CellTiter-Glo Luminescent Cell Viability Assay on ER-negative breast cancer MDA-MB-231 cells; assay type: cell-based; details: average ± standard deviation when tested more than 3 times, read-out: Inhibition of the viability of breast cancer cells, IC50
Method in brief: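 Cells seeded at 6×10^3 per well in DMEM with 10% FCS and exposed 72 h to compound at 0 to 100 μM (twelve concentrations, DMSO vehicle). Viability measured by CellTiter-Glo luminescence.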

Hep3B2.1-7 cells = assay: MTT assay, in vitro growth of liver cancer Hep3B2.1-7 cells; assay type: cell-based; details: 72 hours; for IC50: read-out: Inhibition on liver cancer cells, IC50
Method: The liver cancer Hep3B2.1-7 cells were obtained from ATCC. Cells were incubated in 1640 culture medium with 5% fetal calf serum and 100 U/ml double-antibody in a cell incubator at 37° C., 5% CO2 atmosphere and passaged via conventional methods. The sample was dissolved in DMSO, formulated into 50 mg/ml stocking solution, and stored at 4° C. The test solutions at 50, 25, 12.5 and 6.25 μg/ml were formulated with culture medium immediately before use.
The adherent cells were digested with cell digestive solution, and then the exfoliated cells were collected and counted. The cell suspension was formulated with 1640 culture medium containing 5% fetal calf serum (5.0×10^4/ml). The cell suspension was seeded on 96-well plate with 100 μl/well, and maintained in a cell incubator at 37° C., 5% CO2 atmosphere for 24 hours. After that, the compounds at various concentrations were added, where solvent was taken as negative control and Taxol as positive control. 10 μl MTT (5 mg/ml) was added after 72 hours. The supernatant was removed after cultivation for 3 hours more, 150 μl DMSO was added and the formazan was dissolved on shaking. OD values were measured at 570 nm after homogeneous mixing, and inhibition rate and IC50 values were calculated based on the mean of OD values from 3 wells.

[1] = Homo sapiens, SK-OV-3, 72 hours

SMILES | IC50 (SK-OV3 cells; [1]) | IC50 (HO8910 cells) | IC50 (CoC1 cells) | IC50 (MCF7 cells; Homo sapiens, MCF7, 72 h) | IC50 (MDA-MB-231 cells; Homo sapiens, MDA-MB-231, 72 h) | IC50 (Hep3B2.1-7 cells) | Inhibition on liver cancer cells, IC50 (Hep3B2.1-7 cells) | IC50 (MCF7 cells; 72 hours) | IC50 (MDA-MB-231 cells; 72 hours) | IC50 (SK-OV3 cells; 72 hours)
COc1c(-c2ccc(F)cc2)oc2c(CC=C(C)C)c(O)c(CC=C(C)C)c(O)c2c1=O [Compound 7, 2-(4-fluorophenyl)-5,7-dihydroxy-3-methoxy-6,8-di(3-methyl-2-buten-1-yl)-4H-benzopyran-4-one] | > 100 µM | 21.6 µM | > 100 µM | 12.6 ± 0.68 µM | 10.9 ± 2.22 µM | 1.09 µg/mL (≈ 2.49 µM) |  |  |  | 
COc1c(-c2ccc(O)c(C(F)(F)F)c2)oc2c(CC=C(C)C)c(O)c(CC=C(C)C)c(O)c2c1=O [Compound 77, 2-(3-trifluoromethyl-4-hydroxyphenyl)-5,7-dihydroxy-3-methoxy-6,8-di(3-methyl-2-buten-1-yl)-4H-benzopyran-4-one] |  |  |  | > 100 µM | 15.4 µM | 3.08 µg/mL (≈ 6.11 µM) |  |  |  | 
COc1c(-c2ccc(Cl)cc2)oc2c(CC=C(C)C)c(O)c(CC=C(C)C)c(O)c2c1=O [Compound 10, 2-(4-chlorophenyl)-5,7-dihydroxy-3-methoxy-6,8-di(3-methyl-2-butylene-1-yl)-4H-benzopyran-4-one] |  |  |  |  |  |  | 9.43 µg/mL | > 100 µM | 8.89 µM | 
COc1ccc(-c2oc3c(CC=C(C)C)c(O)c(CC=C(C)C)c(O)c3c(=O)c2OC)cn1 [Compound 26, 2-(6-methoxypyridin-3-yl)-5,7-dihydroxy-3-methoxy-6,8-di(3-methyl-2-buten-1-yl)-4H-benzopyran-4-one] | 40.1 µM | 24.3 µM | 17.8 µM | 11 ± 1.34 µM | 12.8 ± 1.78 µM |  |  |  |  | 
CNS(=O)(=O)c1ccc(-c2oc3c(CC=C(C)C)c(O)c(CC=C(C)C)c(O)c3c(=O)c2OC)cc1 [Compound 70, 4-[5,7-dihydroxy-3-methoxy-6,8-di(3-methyl-2-buten-1-yl)-4-oxo-4H-benzopyran-2-yl]N-methylbenzene sulfonamide] |  |  |  | > 100 µM | 7.64 µM | 0.39 µg/mL (≈ 0.759 µM) |  |  |  | 
COc1c(-c2ccc(S(=O)(=O)N(C)C)cc2)oc2c(CC=C(C)C)c(O)c(CC=C(C)C)c(O)c2c1=O [Compound 69, 4-[5,7-dihydroxy-3-methoxy-6,8-di(3-methyl-2-buten-1-yl)-4-oxo-4H-benzopyran-2-yl]-N,N-dimethylbenzene sulfonamide] |  |  |  | > 100 µM | 1.87 µM | 3.89 µg/mL (≈ 7.37 µM) |  |  |  | 
COc1c(-c2ccc(Cl)c(F)c2)oc2c(CC=C(C)C)c(O)c(CC=C(C)C)c(OC)c2c1=O [Compound 84, 2-(3-fluoro-4-chlorophenyl)-7-hydroxy-3,5-dimethoxy-6,8-di(3-methyl-2-buten-1-yl)-4H-benzopyran-4-one] | 15.7 µM | 23.4 µM | 23.4 µM | 6.89 µM | 13.5 µM |  |  |  |  | 
COc1ccc(-c2cc(=O)c3c(O)c(CC=C(C)C)c(O)c(CC=C(C)C)c3o2)cc1Cl [Compound 90, 2-(3-chloro-4-trimethoxyphenyl)-5,7-dihydroxy-6,8-di(3-methyl-2butylene-1-yl)-4H-benzopyran-4-one] |  | > 100 µM | > 100 µM |  |  |  |  | 8.98 µM | 10.7 ± 1.38 µM | > 100 µM
COc1c(-c2ccc(O)c(C)c2)oc2c(CC=C(C)C)c(O)c(CC=C(C)C)c(O)c2c1=O [Compound 75, 2-(3-methyl-4-hydroxyphenyl)-5,7-dihydroxy-3-methoxy-6,8-di(3-methyl-2-buten-1-yl)-4H-benzopyran-4-one] |  |  |  | 49 µM | 11.6 µM | 0.83 µg/mL (≈ 1.84 µM) |  |  |  | 

Continued, values first:

IC50 (SK-OV3 cells; [1]) | IC50 (HO8910 cells) | IC50 (CoC1 cells) | IC50 (MCF7 cells; Homo sapiens, MCF7, 72 h) | IC50 (MDA-MB-231 cells; Homo sapiens, MDA-MB-231, 72 h) | IC50 (Hep3B2.1-7 cells) | Inhibition on liver cancer cells, IC50 (Hep3B2.1-7 cells) | IC50 (MCF7 cells; 72 hours) | IC50 (MDA-MB-231 cells; 72 hours) | IC50 (SK-OV3 cells; 72 hours) | SMILES
7.23 µM | 17.6 µM | 9.23 µM | 6.17 ± 0.05 µM | 10.3 ± 0.56 µM |  |  |  |  |  | COc1cc(-c2oc3c(CC=C(C)C)c(O)c(CC=C(C)C)c(O)c3c(=O)c2OC)ccn1 [Compound 27, 2-(2-methoxypyridin-4-yl)-5,7-dihydroxy-3-methoxy-6,8-di(3-methyl-2-buten-1-yl)-4H-benzopyran-4-one]
 |  |  | 6.06 µM | 4.87 µM | 14 µg/mL (≈ 28 µM) |  |  |  |  | COc1c(-c2ccc(S(N)(=O)=O)cc2)oc2c(CC=C(C)C)c(O)c(CC=C(C)C)c(O)c2c1=O [Compound 63, 4-[5,7-dihydroxy-3-methoxy-6,8-di(3-methyl-2-buten-1-yl)-4-oxo-4H-benzopyran-2-yl]benzene sulfonamide]
 |  |  | 5.33 µM | 3.64 µM | 8.23 µg/mL (≈ 18.1 µM) |  |  |  |  | COc1c(-c2ccc(O)c(F)c2)oc2c(CC=C(C)C)c(O)c(CC=C(C)C)c(O)c2c1=O [Compound 79, 2-(3-fluoro-4-hydroxyphenyl)-5,7-dihydroxy-3-methoxy-6,8-di(3-methyl-2-buten-1-yl)-4H-benzopyran-4-one]
 |  |  | 5.46 µM | 5.36 µM | 8.95 µg/mL (≈ 19.7 µM) |  |  |  |  | COc1c(-c2ccc(F)c(O)c2)oc2c(CC=C(C)C)c(O)c(CC=C(C)C)c(O)c2c1=O [Compound 78, 2-(3-hydroxy-4-fluorophenyl)-5,7-dihydroxy-3-methoxy-6,8-di(3-methyl-2-buten-1-yl)-4H-benzopyran-4-one]
 |  |  | 4.08 µM | 3 µM | 5.79 µg/mL (≈ 12.3 µM) |  |  |  |  | COc1c(-c2ccc(O)c(Cl)c2)oc2c(CC=C(C)C)c(O)c(CC=C(C)C)c(O)c2c1=O [Compound 76, 2-(3-chloro-4-hydroxyphenyl)-5,7-dihydroxy-3-methoxy-6,8-di(3-methyl-2-buten-1-yl)-4H-benzopyran-4-one]
